Data reported in patent US10479780B2, “Aminopyrazole derivatives” (Chugai Seiyaku Kabushiki Kaisha, priority 2015, dated 2019).
Like-named read-outs stand apart in the source and are kept apart here.

How the values were obtained:
Format in all cases: biochemical
human Yes1 enzyme = target: T1, human Yes1 enzyme (Homo sapiens, UniProt P07947); test: Yes1 enzyme inhibitory activity (time-resolved fluorometry, biotinylated peptide phosphorylation); details: read-out: YES_IC50
T1 construct: made in house
T1 sequence (P07947 whole entry): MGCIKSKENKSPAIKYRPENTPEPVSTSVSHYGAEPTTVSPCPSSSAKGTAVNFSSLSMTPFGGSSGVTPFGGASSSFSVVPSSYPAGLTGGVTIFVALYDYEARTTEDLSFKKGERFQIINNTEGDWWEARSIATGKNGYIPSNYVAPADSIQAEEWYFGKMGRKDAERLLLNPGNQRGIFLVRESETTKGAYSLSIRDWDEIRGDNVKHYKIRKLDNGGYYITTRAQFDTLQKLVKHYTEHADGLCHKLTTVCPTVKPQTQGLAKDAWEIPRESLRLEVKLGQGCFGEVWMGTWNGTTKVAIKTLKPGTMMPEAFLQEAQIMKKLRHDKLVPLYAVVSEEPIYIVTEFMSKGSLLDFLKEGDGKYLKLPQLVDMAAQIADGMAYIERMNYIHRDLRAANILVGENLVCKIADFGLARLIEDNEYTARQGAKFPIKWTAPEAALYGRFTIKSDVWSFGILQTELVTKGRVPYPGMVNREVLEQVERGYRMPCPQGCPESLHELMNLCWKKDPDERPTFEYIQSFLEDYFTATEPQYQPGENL
How it was run: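 Inhibition was expressed against a compound-free control to give IC50, using TR-FRET read-out (Eu-cryptate anti-pTyr antibody, streptavidin-XL665).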

human Lck enzyme = target: T2, human Lck enzyme (Homo sapiens, UniProt P06239); test: Lck enzyme inhibitory activity (time-resolved fluorometry, biotinylated peptide phosphorylation); details: read-out: LCK_IC50
T2 construct: purchased Carna Biosciences, Inc. 08-170
T2 sequence (P06239 whole entry): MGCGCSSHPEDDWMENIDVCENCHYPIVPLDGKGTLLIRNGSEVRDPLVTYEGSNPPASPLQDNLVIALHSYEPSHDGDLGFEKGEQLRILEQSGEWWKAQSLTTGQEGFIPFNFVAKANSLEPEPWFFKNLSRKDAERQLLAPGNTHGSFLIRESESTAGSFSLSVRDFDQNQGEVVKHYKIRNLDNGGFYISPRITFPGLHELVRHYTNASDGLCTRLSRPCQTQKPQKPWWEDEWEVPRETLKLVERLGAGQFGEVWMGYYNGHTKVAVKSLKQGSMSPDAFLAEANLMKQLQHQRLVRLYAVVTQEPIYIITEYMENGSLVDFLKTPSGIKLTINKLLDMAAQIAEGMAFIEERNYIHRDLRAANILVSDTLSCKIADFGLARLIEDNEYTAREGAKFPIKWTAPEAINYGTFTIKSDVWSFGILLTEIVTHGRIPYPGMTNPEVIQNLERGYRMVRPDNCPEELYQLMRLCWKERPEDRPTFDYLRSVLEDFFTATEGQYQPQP
How it was run: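 Readout pairs a europium cryptate-labelled anti-phosphotyrosine antibody with XL665-streptavidin, measured by time-resolved fluorescence. IC50 derived from percent inhibition against untreated controls.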

human Src enzyme = target: T3, human Src enzyme (Homo sapiens, UniProt P12931); test: Src enzyme inhibitory activity (time-resolved fluorometry, biotinylated peptide phosphorylation); details: read-out: SRC_IC50
T3 construct: purchased Carna Biosciences, Inc. 08-173
T3 sequence (P12931 whole entry): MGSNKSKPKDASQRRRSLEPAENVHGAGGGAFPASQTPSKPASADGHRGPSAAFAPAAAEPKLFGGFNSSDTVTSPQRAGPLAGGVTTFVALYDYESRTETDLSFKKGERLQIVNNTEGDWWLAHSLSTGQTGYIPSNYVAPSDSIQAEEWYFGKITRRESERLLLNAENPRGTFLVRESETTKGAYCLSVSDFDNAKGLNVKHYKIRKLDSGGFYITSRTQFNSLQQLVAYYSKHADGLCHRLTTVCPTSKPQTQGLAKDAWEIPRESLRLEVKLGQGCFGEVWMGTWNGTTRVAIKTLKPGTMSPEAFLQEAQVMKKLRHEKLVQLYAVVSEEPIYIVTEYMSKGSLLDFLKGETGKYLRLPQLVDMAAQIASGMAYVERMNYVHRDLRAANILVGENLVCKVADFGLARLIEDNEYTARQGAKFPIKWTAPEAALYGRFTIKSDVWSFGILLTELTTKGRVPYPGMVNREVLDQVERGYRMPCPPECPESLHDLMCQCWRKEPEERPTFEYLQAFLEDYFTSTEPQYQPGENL
How it was run: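 Compounds were tested for blocking tyrosine phosphorylation of a biotinylated peptide substrate by recombinant human Src. Phosphorylated product was quantified by time-resolved fluorometry using europium cryptate and XL665 conjugates, and IC50 was calculated against the compound-free control.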

[1] = biotinylated peptide phosphorylation

| Compound | IC50 (human Yes1 enzyme) | IC50 (human Lck enzyme) | IC50 (human Src enzyme) | IC50 (human Yes1 enzyme; [1]) | IC50 (human Lck enzyme; [1]) | IC50 (human Src enzyme; [1]) |
| --- | --- | --- | --- | --- | --- | --- |
| Cc1cc(Oc2c(F)cccc2F)ncc1-n1ncc(C(=O)c2cc3cc(OCC(F)F)c(NS(=O)(=O)c4cccc(C#N)c4)cc3[nH]2)c1N [Example 5-1-382, N-[2-[5-amino-1-[6-(2,6-difluorophenoxy)-4-methylpyridin-3-yl]pyrazole-4-carbonyl]-5-(2,2-difluoroethoxy)-1H-indol-6-yl]-3-cyanobenzenesulfonamide] | 2.5 nM | 31 nM | 260 nM | – | – | – |
| Cc1cc(Oc2c(F)cccc2F)ncc1-n1ncc(C(=O)c2cc3cc(F)c(N(CCN4CCOCC4)S(C)(=O)=O)cc3[nH]2)c1N [Example 4-2-128, N-[2-[5-amino-1-[6-(2,6-difluorophenoxy)-4-methylpyridin-3-yl]pyrazole-4-carbonyl]-5-fluoro-1H-indol-6-yl]-N-(2-morpholin-4-ylethyl)methanesulfonamide] | – | – | – | 1.2 nM | 2.7 nM | 8.6 nM |
| Cc1cc2cc(C(=O)c3cnn(-c4cnc(Oc5ccccc5F)cc4C)c3N)[nH]c2cc1NS(=O)(=O)c1cc(Cl)ccn1 [Example 5-1-509, N-[2-[5-amino-1-[6-(2-fluorophenoxy)-4-methylpyridin-3-yl]pyrazole-4-carbonyl]-5-methyl-1H-indol-6-yl]-4-chloropyridine-2-sulfonamide] | – | – | – | 3.7 nM | 130 nM | 840 nM |
| Cc1cc(Oc2ccccc2F)cc(F)c1-n1ncc(C(=O)c2cc3cc(OCC(F)F)c(NC4CCN(S(C)(=O)=O)CC4)cc3[nH]2)c1N [Example 4-23-028, [5-amino-1-[2-fluoro-4-(2-fluorophenoxy)-6-methylphenyl]pyrazol-4-yl]-[5-(2,2-difluoroethoxy)-6-[(1-methylsulfonylpiperidin-4-yl)amino]-1H-indol-2-yl]methanone] | – | – | – | 20 nM | 41 nM | 70 nM |
| Cc1cc(Oc2ccccc2F)ccc1-n1ncc(C(=O)c2cc3cc(F)c(NS(=O)(=O)CCCF)cc3[nH]2)c1N [Example 4-2-015, N-[2-[5-amino-1-[4-(2-fluorophenoxy)-2-methylphenyl]pyrazole-4-carbonyl]-5-fluoro-1H-indol-6-yl]-3-fluoropropane-1-sulfonamide] | – | – | – | 0.67 nM | 10 nM | 19 nM |
| Cc1cc(Oc2ccccc2F)ccc1-n1ncc(C(=O)c2cc3cc(OCC(F)F)c(N4C(=O)[C@@H]5C[C@H](NC(=O)OCC(C)C)CN5C4=O)cc3[nH]2)c1N [Example 5-1-274, 2-methylpropyl N-[(6S,7aS)-2-[2-[5-amino-1-[4-(2-fluorophenoxy)-2-methylphenyl]pyrazole-4-carbonyl]-5-(2,2-difluoroethoxy)-1H-indol-6-yl]-1,3-dioxo-5,6,7,7a-tetrahydropyrrolo[1,2-c]imidazol-6-yl]carbamate] | 2.1 nM | 17 nM | 45 nM | – | – | – |
| CS(=O)(=O)Nc1cc2[nH]c(C(=O)c3cnn(-c4c(Cl)cc(Oc5cccc(F)c5F)cc4Cl)c3N)cc2cc1F [Example 5-1-024, N-[2-[5-amino-1-[2,6-dichloro-4-(2,3-difluorophenoxy)phenyl]pyrazole-4-carbonyl]-5-fluoro-1H-indol-6-yl]methanesulfonamide] | 26 nM | 83 nM | 340 nM | – | – | – |
| Cc1cc(Oc2ccccc2F)ncc1-n1ncc(C(=O)c2cc3cc(OC(F)F)c(N4CCC(N5CCOCC5)CC4)cc3[nH]2)c1N [Example 4-25-030, [5-amino-1-[6-(2-fluorophenoxy)-4-methylpyridin-3-yl]pyrazol-4-yl]-[5-(difluoromethoxy)-6-(4-morpholin-4-ylpiperidin-1-yl)-1H-indol-2-yl]methanone] | – | – | – | 2.6 nM | 9.1 nM | 38 nM |
| Cc1cc(Oc2c(F)cccc2F)ncc1-n1ncc(C(=O)c2cc3cc(F)c(NS(=O)(=O)c4cncc(Cl)c4)cc3[nH]2)c1N [Example 5-1-543, N-[2-[5-amino-1-[6-(2,6-difluorophenoxy)-4-methylpyridin-3-yl]pyrazole-4-carbonyl]-5-fluoro-1H-indol-6-yl]-5-chloropyridine-3-sulfonamide] | – | – | – | 9.8 nM | 360 nM | 640 nM |
| Cc1cc(Oc2c(F)cccc2F)ncc1-n1ncc(C(=O)c2cc3cc(OC4CCN(C(C)C)CC4)c(NS(C)(=O)=O)cc3[nH]2)c1N [Example 5-1-184, N-[2-[5-amino-1-[6-(2,6-difluorophenoxy)-4-methylpyridin-3-yl]pyrazole-4-carbonyl]-5-(1-propan-2-ylpiperidin-4-yl)oxy-1H-indol-6-yl] methanesulfonamide] | 0.43 nM | 2.6 nM | 11 nM | – | – | – |
| Cc1cc(-n2ncc(C(=O)c3cc4cc(OC5CCN(C(C)C)CC5)c(Br)cc4[nH]3)c2N)c(F)cc1Oc1ccccc1F [Example 5-1-212, [5-amino-1-[2-fluoro-4-(2-fluorophenoxy)-5-methylphenyl]pyrazol-4-yl]-[6-bromo-5-(1-propan-2-ylpiperidin-4-yl)oxy-1H-indol-2-yl] methanone] | 4.5 nM | 60 nM | 220 nM | – | – | – |
| Cc1cc2cc(C(=O)c3cnn(-c4cnc(Oc5ccccc5F)cc4C)c3N)[nH]c2cc1NS(=O)(=O)c1cc(C#N)ccn1 [Example 5-1-478, N-[2-[5-amino-1-[6-(2-fluorophenoxy)-4-methylpyridin-3-yl]pyrazole-4-carbonyl]-5-methyl-1H-indol-6-yl]-4-cyanopyridine-2-sulfonainide] | – | – | – | 4.8 nM | 77 nM | 280 nM |
| Cc1cc(Oc2ccccc2F)ccc1-n1ncc(C(=O)c2cc3cc(Cl)c(NS(C)(=O)=O)cc3[nH]2)c1N [Example 4-2-077, N-[2-[5-amino-1-[4-(2-fluorophenoxy)-2-methylphenyl]pyrazole-4-carbonyl]-5-chloro-1H-indol-6-yl]methanesulfonamide] | – | – | – | 0.64 nM | 4.3 nM | 25 nM |
| Cc1cc(-n2ncc(C(=O)c3cc4cc(OC5CCN(C6CCC6)CC5)c(N5C(=O)NC(C)(C)C5=O)cc4[nH]3)c2N)ccc1Oc1ccccc1F [Example 5-1-233, 3-(2-(5-amino-1-(4-(2-fluorophenoxy)-3-methylphenyl)-1H-pyrazole-4-carbonyl)-5-((1-cyclobutylpiperidin-4-yl)oxy)-1H-indol-6-yl)-5,5-dimethylimidazolidine-2,4-dione] | 0.92 nM | 21 nM | 340 nM | – | – | – |
| Cc1cc(Oc2ccccc2F)ccc1-n1ncc(C(=O)c2cc3cc(C4CC4)c(NS(=O)(=O)CCCF)cc3[nH]2)c1N [Example 5-1-426, N-[2-[5-amino-1-[4-(2-fluorophenoxy)-2-methylphenyl]pyrazole-4-carbonyl]-5-cyclopropyl-1H-indol-6-yl]-3-fluoropropane-1-sulfonamide] | – | – | – | 2 nM | 36 nM | 95 nM |
| Cc1cc2cc(C(=O)c3cnn(-c4cnc(Oc5c(F)cccc5F)cc4C)c3N)[nH]c2cc1N1C(=O)NC2(CCNCC2)C1=O [Example 5-1-357, 3-[2-[5-amino-1-[6-(2,6-difluorophenoxy)-4-methylpyridin-3-yl]pyrazole-4-carbonyl]-5-methyl-1H-indol-6-yl]-1,3,8-triazaspiro[4.5] decane-2,4-dione] | 2.3 nM | 4.4 nM | 39 nM | – | – | – |
